# Source: PubChem BioAssay AID1648 (Sanford-Burnham Center for Chemical Genomics, 2009)
# Calls of active or inactive are those of the source. No rule for the calls is given here.
# Biological target: Serine/threonine-protein kinase mTOR (Homo sapiens) (UniProt P42345)
# Assay: binders of mTOR FRB domain, biophysical, NMR (AID 1648)
# Conditions: NMR binding to FRB domain, chemical shift
# Chain of Serine/threonine-protein kinase mTOR (Homo sapiens) (P42345 2015-2114): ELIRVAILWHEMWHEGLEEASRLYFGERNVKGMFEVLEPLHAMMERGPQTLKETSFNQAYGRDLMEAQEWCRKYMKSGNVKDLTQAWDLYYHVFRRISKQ
row,Structure (SMILES),Kd
1,COc1ccc(NC(=O)N2CCCCC2)cc1,> 4 mM (inactive)
2,c1cncc(-c2nnc(-c3cccnc3)nn2)c1,> 4 mM (inactive)
3,O=C(O)CSCc1ccc(Cl)cc1,> 4 mM (inactive)
4,O=C(O)c1cccc2c1OCCO2,> 4 mM (inactive)
5,Cc1nn2c(nc1=O)SCC2(O)c1ccccc1 (configuration not stated),> 4 mM (inactive)
6,Cc1nc2ccc(C(=O)O)cc2nc1C,> 4 mM (inactive)
7,C=CCN1CC[C@]23c4c5ccc(O)c4OC2C(=O)CC[C@@]3(O)[C@H]1C5 (some centres not stated),> 4 mM (inactive)
8,Cc1nc2ccccc2c(=O)n1/N=C/c1ccco1,> 4 mM (inactive)
9,Cc1ccccc1-n1c(-c2ccncc2)n[nH]c1=S,> 4 mM (inactive)
10,CN(C)S(=O)(=O)c1ccccc1C#N,> 4 mM (inactive)
11,O=C1CN(C(=O)CN2CCOCC2)c2ccccc2N1,> 4 mM (inactive)
12,Cc1nn(CC(=O)Nc2ccccn2)c(=O)c2ccccc12,> 4 mM (inactive)
13,Cc1cc(=O)n(CCc2ccccc2)c(O)c1C#N,> 4 mM (inactive)
14,COC(=O)c1ccc(/C=C2/NC(=S)NC2=O)cc1,> 4 mM (inactive)
15,O=C(Cc1cccs1)Nc1nncs1,> 4 mM (inactive)
16,CC1(C)C(=O)[C@@H]2C[C@@]3(O)C4=CC(=O)O[C@@H](c5ccoc5)[C@]4(C)CCC3C(C)(C2=O)[C@H]1CC(=O)O (some centres not stated),> 4 mM (inactive)
17,COc1ccc(CN2CCOCC2)c(C)c1C,> 4 mM (inactive)
18,CCc1cccc(C)c1NC(=O)c1cc(C)oc1C,> 4 mM (inactive)
19,O=C(CSC1=NCCS1)N1CCc2ccccc21,> 4 mM (inactive)

row,Structure (SMILES),Kd
1,CC(=O)C1CCC2C3CCC4C[C@H](O)CCC4(C)C3C[C@H](O)C12C (some centres not stated),> 4 mM (inactive)
2,Cn1c(CN)nc2ccccc21,> 4 mM (inactive)
3,O=C(NCCO)c1ccccc1I,> 4 mM (inactive)
4,CC(=O)Nc1ccc(NC(=O)/C=C\C(=O)O)cc1,> 4 mM (inactive)
5,CSc1nc(C)cc(Oc2ccc(=O)n(C)n2)n1,> 4 mM (inactive)
6,Cc1occc1C(=O)N1CCC2(CC1)OCCO2,> 4 mM (inactive)
7,O=C(O)CNC(=O)c1ccccc1Cl,> 4 mM (inactive)
8,O=C1NC(=O)C(=Cc2ccccc2)C(=O)N1,> 4 mM (inactive)
9,O=C(O)C1Cc2ccccc2O1 (configuration not stated),> 4 mM (inactive)
10,CCc1sc(C(=O)NC)cc1Br,> 4 mM (inactive)
11,COC(=O)Nc1nnc(-c2ccncc2)s1,> 4 mM (inactive)
12,C[C@@H]1O[C@@H](O[C@H]2[C@H](Oc3cc(O)c4c(=O)cc(-c5ccc(O)cc5)oc4c3)O[C@H](CO)[C@@H](O)[C@@H]2O)[C@H](O)[C@H](O)[C@H]1O,> 4 mM (inactive)
13,NC(=O)CSc1ccccn1,> 4 mM (inactive)
14,CS/C(N)=C\C(C)=O,> 4 mM (inactive)
15,CCC(=O)NC(=S)Nc1ccc(N2CCOCC2)cc1,> 4 mM (inactive)
16,NC(=O)CSc1nc2ccccc2[nH]1,> 4 mM (inactive)
17,COc1cc(C(=S)N2CCC(C(N)=O)CC2)ccc1O,> 4 mM (inactive)
18,Cc1nc(SCC#N)c2c3c(sc2n1)CCC3,> 4 mM (inactive)
19,O=C1NC(=S)N/C1=C/c1ccc(O)c(Cl)c1,> 4 mM (inactive)

row,Structure (SMILES),Kd
1,c1ccc(Cc2nnc3sc(-c4ccccn4)nn23)cc1,> 4 mM (inactive)
2,COc1ccc(-c2cc3nc4n(c(=O)c3s2)CCC4)cc1,> 4 mM (inactive)
3,CC(=O)Nc1nnc(-c2ccccc2)o1,> 4 mM (inactive)
4,CC1(C)CC2C1CCC1(C)OC2(C)CCC1O (configuration not stated),> 4 mM (inactive)
5,Nc1ccc(N2CCOCC2)c(Cl)c1,> 4 mM (inactive)
6,O=C1Cn2c(nc3ccccc32)N1c1ccccc1F,> 4 mM (inactive)
7,Cc1cc(SCCF)n2ncnc2n1,> 4 mM (inactive)
8,c1cc(C(N2CCOCC2)N2CCOCC2)ccn1,> 4 mM (inactive)
9,Cn1c(C(=O)O)ccc1S(N)(=O)=O,> 4 mM (inactive)
10,c1ccc(-n2ncc3c(NCc4ccco4)ncnc32)cc1,> 4 mM (inactive)
11,Cc1nnsc1-c1onc(C)c1C(=O)O,> 4 mM (inactive)
12,CCOC(=O)Cn1cnc2sc3c(c2c1=O)CCC3,> 4 mM (inactive)
13,O=C1NC(=O)C(c2ccccc2)C(=O)N1,> 4 mM (inactive)
14,COC1(C)CCC2OC2(C)CCC2C1CC2(C)C (configuration not stated),> 4 mM (inactive)
15,Cc1csc(SCC(=O)N2CCCC2)n1,> 4 mM (inactive)
16,COc1ccccc1/C=C/CN1CCOCC1,> 4 mM (inactive)
17,O=C(O)c1cn(-c2ccccc2)nc1-c1cccnc1,> 4 mM (inactive)
18,COc1cc2c(cc1O)CCNC2C (configuration not stated),> 4 mM (inactive)
19,Cn1nnc2cc(C(=O)NC3CCCCC3)ccc21,> 4 mM (inactive)
